Values quoted from earlier work, collected in patent publication US9485971B2, “Fumarylacetoacetate hydrolase (Fah)-deficient pigs and uses thereof” (May Foundation for Medical Education and Research, priority 2010, dated 2016).

Test system: Fah-deficient mice

In the case of `O=C1CCCC(=O)C1C(=O)c1ccc(C(F)(F)F)cc1[N+](=O)[O-]` [NTBC, 2-(2-nitro-4-trifluoro-methyl-benzoyl)-1,3 cyclohexanedione], the “phenotype at suboptimal doses of NTBC” value (Fah-/- mice, suboptimal doses) is listed as “develop HCC and fibrosis”, the “effect on liver function and neonatal lethality” value (Fah-deficient mice treated with NTBC) is listed as “restores liver function and abolishes neonatal lethality” and the “hepatocellular carcinoma penetrance rate” value (suboptimal NTBC dose of 0.2 mg/kg/day, mice, within the first six months of life) is listed as “exceeding 50%”.
